According to US20230346827A1 (priority 2020, published 2023):

Tests used:
[1] = tested on: Human umbilical vein endothelial cells (HUVECs); test: Gene expression array and pathway analysis, HUVECs, LMW-DS 0.01 mg/ml 48 h; type: cell-based; conditions: for number of genes: abolished nutrient effect / number of genes: total / number of genes: enhanced response to nutrients / number of genes: not different from control / Activation z-score / Predicted activation state relative D2 control: HUVECs; for Activation z-score / Predicted activation state relative D2 control: D2 LMW-DS treatment
Protocol: For each cell line, n=8 × 25 cm^2 culture flasks were set up. Two flasks were harvested for each cell type on the day of treatment (24 hours after seeding). This represents the Day0 time point. From the remaining flasks, three flasks were treated with Control Medium and three were treated with Culture Medium (CM) containing LMW-DS to give a final concentration of 0.01 mg/ml. Cells from the treated flasks were collected after 48 hours. Therefore the collected data represent (a) untreated cells (Day0 Controls and Day2 Controls) and (b) cells treated with LMW-DS (ILB®, Tikomed AB, Viken, Sweden, WO 2016/076780) for 48 hours (Day2 LMW-DS treated).
Medium 200 + Large Vessel Endothelial Supplement (M200+LVES) additive (1:50) was prepared and pre-warmed to 37° C. Cells were thawed in a 37° C. water bath for no longer than 2 min and gently transferred into a 50 ml tube containing 20 ml Dulbecco’s Modified Eagle Medium, Nutrient Mixture F-12 (DMEM-F12). The cell suspension was mixed by inverting the tube carefully twice. Cells were spun at 400 × g for 10 minutes. Supernatant removed and cells were re-suspended in 10 ml of culture media (M200+LVES additive).
Cells were counted with the Cellometer. 1,000,000 cells/flask were seeded in 25 cm^2 flasks (n=8) and medium was topped up to a total of 5 ml per flask. Cells were incubated at 37° C. with 5% CO2. Cells were allowed to settle for 24 hours before LMW-DS treatment.
LMW-DS was provided at a stock concentration of 20 mg/ml and was kept in a temperature monitored refrigerator at 4° C. A fresh 100x LMW-DS stock (1.0 mg/ml) was prepared in sterile DMEM-F12. The concentrated drug stock was sterile filtered and added to the respective culture media (19.6 ml CM and 0.4 ml LMW-DS stock solution). The Control was made using 19.6 ml CM and 0.4 ml of DMEM-F12. LMW-DS and CM were added to the respective flasks (5 ml each) to reach the 0.01 mg/ml concentration of LMW-DS in each dish with a total of 10 ml CM each.
CM was aspirated into a clean and labelled 15 ml Falcon tube. The flasks (without culture medium) were placed into the -80° C. freezer for 30 minutes. The CM in the Falcon tubes was spun at 3000 x g for 5 minutes. Supernatant was removed and the small pellet was re-suspended in 2.5 ml Trizol:Water (4:1) solution at room temperature (RT, ~22° C.).
Two aliquots of 1 ml lysate were removed from each sample and 200 µl of chloroform was added to each (0.2 ml of chloroform per 1 ml of TRIzol Reagent used during the cell lysis step) and the tube was shaken vigorously. Samples were stored at RT for 2-3 minutes and subsequently centrifuged at 12,000 x g for 15 minutes at 4° C.
The RNA was precipitated from the aqueous phase by adding an equal amount of 100% ethanol. The precipitated RNA was fixed onto a Spin Cartridge, washed twice and dried. The RNA was eluted in 50 µl warm RNase-Free Water. The amount and quality of the purified RNA was measured by Nanodrop. The RNA was stored at -80° C. before transfer to Source Bioscience for Array analysis.
The expression data were downloaded into separate files for each cell line. The ‘Background corrected’ expression is the data from the “gProcessedSignal” of the arrays that is the result of the background signal extracted from the actual signal of the relevant probe. This is the most often used variable in array analysis. The background corrected signal was log2 transformed for all samples for statistical analysis. To reduce the false discovery rate in the samples, the signals that were below ‘expression level’ were removed. The ‘below expression’ level was set at 5 for the log2 transformed expression values.
Based on the expression pattern of the Control probes on each array it was decided to carry out Median Centering for all arrays before analysis to reduce the variability of the results. […]

ALS patients = test: Blood myoglobin, creatine kinase and HGF in ALS patients, dextran sulfate 1 mg/kg s.c. weekly for five weeks (Example 15); type: in vivo, human; set-up: circulating HGF, peak: unit not given here
Protocol: A clinical trial in the form of a Phase IIa, single-center, open label, single-arm study where the safety, tolerability and possible efficacy of subcutaneously administered dextran sulfate was evaluated in patients with ALS of intermediate progression rate. The clinical trial was conducted at the Sahlgrenska University Hospital, Gothenburg, Sweden and was overseen and approved by the Ethics Committee of the University of Gothenburg and by the Swedish Medical Products Agency.
Dextran sulfate (Tikomed AB, Viken, Sweden, WO 2016/076780) was administered at 1 mg/kg by […] subcutaneous injection once a week for five weeks to 13 human patients suffering from ALS.
Blood samples were drawn at defined study intervals by a venous catheter into vacutainer tubes. Laboratory analyses of blood plasma were performed immediately after collection by the Clinical Chemistry Laboratory at the Sahlgrenska University Hospital.

With sodium salt of dextran sulfate [LMW-DS] the “genes regulating cell attachment (of 197) differentially regulated” value [1] was “none”, the “number of differentially expressed genes” value ([1]; D0 control to D2 LMW-DS treated) was 1779 and the “number of differentially expressed genes” value ([1]; D2 control to D2 LMW-DS treated) was 76. For the same substance, the “number of genes: abolished nutrient effect” value ([1]; no effect) was 67, the “number of genes: total” value ([1]; no effect) was 67 and the “number of genes: abolished nutrient effect” value ([1]; significant downregulation) was 4. The “number of genes: enhanced response to nutrients” value (“number of genes … to nutrients” below) ([1]; significant downregulation) was 120, the “number of genes: not different from control” value (“number of genes: not different” below) ([1]; significant downregulation) was 167 and the “number of genes: total” value ([1]; significant downregulation) was 291. For the same substance, the “number of genes: abolished nutrient effect” value ([1]; significant upregulation) was 11, the “number of genes … to nutrients” value ([1]; significant upregulation) was 229 and the “number of genes: not different” value ([1]; significant upregulation) was 1326. For the same substance, the “number of genes: total” value ([1]; significant upregulation) was 1566, the “number of genes: abolished nutrient effect” value ([1]; total) was 82 and the “number of genes … to nutrients” value ([1]; total) was 349. The “number of genes: not different” value ([1]; total) was 1493, the “number of genes: total” value ([1]; total) was 1924 and the “modulation of the effects of oxidative stress on mitochondria” value ([1]; pathway analysis of gene expression) was “no significant modulation”. For the same substance, the “genes altered in Control cultures with no changes in LMW-DS treated cultures” value ([1]; two days) was 67, the “genes downregulated by growth factors, downregulation stronger with LMW-DS” value ([1]; two days) was 120 and the “genes downregulated in control cultures, upregulated in LMW-DS treated cultures” value ([1]; two days) was 11. The “genes increased in control cultures, downregulated in LMW-DS treated cultures” value ([1]; two days) was 4, the “genes upregulated in Control cultures, upregulation stronger with LMW-DS” value ([1]; two days) was 229 and the Activation z-score ([1]; upstream regulator HGF) was 3.194. For the same substance, the “Predicted activation state relative D2 control” value ([1]; upstream regulator HGF) was “Activated relative to control”, the Activation z-score ([1]; upstream regulator TGFβ1) was 1.429 and the “Predicted activation state relative D2 control” value ([1]; upstream regulator TGFβ1) was “Activated relative to control”. For the same substance, the Activation z-score ([1]; upstream regulator VEGF) was 3.432, the “Predicted activation state relative D2 control” value ([1]; upstream regulator VEGF) was “Activated relative to control” and the “reduction in creatine kinase levels” value (ALS patients; after 4 weeks of treatment) was 13.3%. The “serum creatine kinase levels” value (ALS patients; after 4 weeks of treatment) was 6.2 ± 5.08 µkat/L, the serum myoglobin levels (ALS patients; after 4 weeks of treatment) was 103.69 ± 72.16 µg/L and the “reduction in myoglobin levels” value (ALS patients; after 4 weeks of treatment vs Day 1) was 30%. The “circulating HGF, peak” value (ALS patients; peak at 2.5 hours after injection) was 37863 ± 14235.
